# Data as given in ChEMBL document CHEMBL1201862, “PubChem BioAssay data set” (2004).
#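 Test compounds were applied to cells in 96-well plates for 48 hours at 5 doses. Here, GI50 denotes the concentration required for 50% inhibition of growth.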 Activity calls are given as the source filed them. Cut-off read from the data, not from the text of the source: active = GI50 up to about 1.1 µM and inactive = higher.
# How the values were obtained:
# Assay in all cases: NCI anticancer screen, dose series, 48 h
# [1] = test system: UACC-257
# [2] = test system: HCT-15
# [3] = test system: CAKI-1
# [4] = test system: NCI-H226
# [5] = test system: HOP-18
# [6] = test system: DMS-114
# [7] = test system: RPMI-8226
# [8] = test system: CCRF-CEM
# [9] = test system: OVCAR-8
# [10] = test system: NCI-H23
# [11] = test system: SNB-75
# [12] = test system: IGROV-1
# [13] = test system: TK-10
# [14] = test system: KM12
# [15] = test system: Malme-3M
# [16] = test system: SNB-78
# [17] = test system: HCC 2998
# [18] = test system: OVCAR-3
# [19] = test system: SF-295
# [20] = test system: ACHN
# [21] = test system: HT-29
# [22] = test system: SW-620
# [23] = test system: SK-MEL-28
# [24] = test system: M14
# [25] = test system: RXF 393
# [26] = test system: UO-31
# [27] = test system: SNB-19
# [28] = test system: SK-OV-3
# [29] = test system: M19-MEL
# [30] = test system: HOP-62
# [31] = test system: NCI-H460
# [32] = test system: SR
# [33] = test system: MOLT-4
# [34] = test system: SF-268
# [35] = test system: UACC-62
# [36] = test system: HCT-116
# [37] = test system: XF498
# [38] = test system: SK-MEL-2
# [39] = test system: HL-60
# [40] = test system: A549
# [41] = test system: SN12C
# [42] = test system: DLD-1
# [43] = test system: COLO 205
# [44] = test system: LOX IMVI
# [45] = test system: OVCAR-5
# [46] = test system: U-251
# [47] = test system: SK-MEL-5
# [48] = test system: KM-20L2
# [49] = test system: OVCAR-4
# [50] = test system: NCI-H522
# [51] = test system: EKVX
# [52] = test system: K562
# [53] = test system: DMS-273
# [54] = test system: LXFL 529
# [55] = test system: 786-0
# [56] = test system: HOP-92
# [57] = test system: SF-539
# [58] = test system: A498
structure (smiles),measurement,setting,value
COc1cc(C2C(Cl)C(=O)N2n2cnc3ccccc3c2=O)cc(OC)c1OC (stereo not given),GI50,[1],55.8 µM (inactive)
same,GI50,[2],63.7 µM
same,GI50,[3],67.1 µM (inactive)
same,GI50,[4],> 100 µM (inactive)
same,GI50,[5],> 100 µM (inactive)
same,GI50,[6],43.4 µM (inactive)
same,GI50,[7],77.8 µM (inactive)
same,GI50,[8],82 µM (inactive)
same,GI50,[9],> 100 µM (inactive)
same,GI50,[10],> 100 µM (inactive)
same,GI50,[11],65.5 µM (inactive)
same,GI50,[12],> 100 µM (inactive)
same,GI50,[13],> 100 µM (inactive)
same,GI50,[14],41.9 µM (inactive)
same,GI50,[15],> 100 µM (inactive)
same,GI50,[16],> 100 µM (inactive)
same,GI50,[17],> 100 µM (inactive)
same,GI50,[18],> 100 µM (inactive)
same,GI50,[19],> 100 µM (inactive)
same,GI50,[20],> 100 µM (inactive)
same,GI50,[21],> 100 µM (inactive)
same,GI50,[22],60.3 µM (inactive)
same,GI50,[23],> 100 µM (inactive)
same,GI50,[24],84.5 µM (inactive)
same,GI50,[25],> 100 µM (inactive)
same,GI50,[26],> 100 µM (inactive)
same,GI50,[27],> 100 µM (inactive)
same,GI50,[28],> 100 µM (inactive)
same,GI50,[29],> 100 µM (inactive)
same,GI50,[30],> 100 µM (inactive)
same,GI50,[31],> 100 µM (inactive)
same,GI50,[32],31.2 µM (inactive)
same,GI50,[33],59.2 µM (inactive)
same,GI50,[34],> 100 µM (inactive)
same,GI50,[35],37.9 µM (inactive)
same,GI50,[36],> 100 µM (inactive)
same,GI50,[37],> 100 µM (inactive)
same,GI50,[38],> 100 µM (inactive)
same,GI50,[39],28.2 µM (inactive)
same,GI50,[40],> 100 µM (inactive)
same,GI50,[41],> 100 µM (inactive)
same,GI50,[42],> 100 µM (inactive)
same,GI50,[43],> 100 µM (inactive)
same,GI50,[44],57.4 µM (inactive)
same,GI50,[45],> 100 µM (inactive)
same,GI50,[46],> 100 µM (inactive)
same,GI50,[47],> 100 µM (inactive)
same,GI50,[48],64.3 µM (inactive)
same,GI50,[49],82.2 µM (inactive)
same,GI50,[50],> 100 µM (inactive)
same,GI50,[51],92 µM (inactive)
same,GI50,[52],20.3 µM (inactive)
same,GI50,[53],41 µM (inactive)
same,GI50,[54],> 100 µM (inactive)
same,GI50,[55],> 100 µM (inactive)
O=S(=O)(O)c1ccc([Se][Se]c2ccc(S(=O)(=O)O)cc2)cc1,GI50,[1],> 100 µM (inactive)
same,GI50,[2],> 100 µM
same,GI50,[3],> 100 µM (inactive)
same,GI50,[4],> 100 µM (inactive)
same,GI50,[5],> 100 µM (inactive)
same,GI50,[6],> 100 µM (inactive)
same,GI50,[7],72.4 µM (inactive)
same,GI50,[8],> 100 µM (inactive)
same,GI50,[9],> 100 µM (inactive)
same,GI50,[10],> 100 µM (inactive)
same,GI50,[11],> 100 µM (inactive)
same,GI50,[12],> 100 µM (inactive)
same,GI50,[13],> 100 µM (inactive)
same,GI50,[14],> 100 µM (inactive)
same,GI50,[15],> 100 µM (inactive)
same,GI50,[16],> 100 µM (inactive)
same,GI50,[17],> 100 µM (inactive)
same,GI50,[18],> 100 µM (inactive)
same,GI50,[19],> 100 µM (inactive)
same,GI50,[20],> 100 µM (inactive)
same,GI50,[21],> 100 µM (inactive)
same,GI50,[22],> 100 µM (inactive)
same,GI50,[23],> 100 µM (inactive)
same,GI50,[24],> 100 µM (inactive)
same,GI50,[56],> 100 µM (inactive)
same,GI50,[25],> 100 µM (inactive)
same,GI50,[57],> 100 µM (inactive)
same,GI50,[26],> 100 µM (inactive)
same,GI50,[27],> 100 µM (inactive)
same,GI50,[58],> 100 µM (inactive)
same,GI50,[28],> 100 µM (inactive)
same,GI50,[29],> 100 µM (inactive)
same,GI50,[30],> 100 µM (inactive)
same,GI50,[31],> 100 µM (inactive)
same,GI50,[32],27.9 µM (inactive)
same,GI50,[33],> 100 µM (inactive)
same,GI50,[34],> 100 µM (inactive)
same,GI50,[35],> 100 µM (inactive)
same,GI50,[36],> 100 µM (inactive)
same,GI50,[37],> 100 µM (inactive)
same,GI50,[38],> 100 µM (inactive)
same,GI50,[39],> 100 µM (inactive)
same,GI50,[40],> 100 µM (inactive)
same,GI50,[41],> 100 µM (inactive)
same,GI50,[42],> 100 µM (inactive)
same,GI50,[43],> 100 µM (inactive)
same,GI50,[44],> 100 µM (inactive)
same,GI50,[45],> 100 µM (inactive)
same,GI50,[46],> 100 µM (inactive)
same,GI50,[47],> 100 µM (inactive)
same,GI50,[48],> 100 µM (inactive)
same,GI50,[49],> 100 µM (inactive)
same,GI50,[50],60.5 µM (inactive)
same,GI50,[51],> 100 µM (inactive)
same,GI50,[52],> 100 µM (inactive)
same,GI50,[53],76.7 µM (inactive)
same,GI50,[54],51.2 µM (inactive)
same,GI50,[55],> 100 µM (inactive)
O=C(CC(=O)N1N=C(N2c3ccccc3Sc3ccccc32)CC1c1ccccc1)Nc1ccc(Cl)cc1 (stereo not given),GI50,[1],> 100 µM (inactive)
same,GI50,[2],> 100 µM
same,GI50,[3],> 100 µM (inactive)
same,GI50,[5],> 100 µM (inactive)
same,GI50,[6],> 100 µM (inactive)
same,GI50,[8],> 10 µM (inactive)
same,GI50,[9],> 100 µM (inactive)
same,GI50,[10],> 100 µM (inactive)
same,GI50,[11],> 100 µM (inactive)
same,GI50,[12],> 100 µM (inactive)
same,GI50,[13],> 100 µM (inactive)
same,GI50,[14],> 100 µM (inactive)
same,GI50,[15],> 100 µM (inactive)
same,GI50,[16],> 100 µM (inactive)
same,GI50,[17],> 100 µM (inactive)
same,GI50,[18],> 100 µM (inactive)
same,GI50,[19],> 100 µM (inactive)
same,GI50,[20],> 100 µM (inactive)
same,GI50,[21],> 100 µM (inactive)
same,GI50,[22],> 100 µM (inactive)
same,GI50,[23],> 100 µM (inactive)
same,GI50,[24],> 100 µM (inactive)
same,GI50,[56],> 100 µM (inactive)
same,GI50,[25],> 100 µM (inactive)
same,GI50,[57],> 100 µM (inactive)
same,GI50,[26],> 100 µM (inactive)
same,GI50,[27],> 100 µM (inactive)
same,GI50,[58],> 100 µM (inactive)
same,GI50,[28],> 100 µM (inactive)
same,GI50,[29],> 100 µM (inactive)
same,GI50,[30],> 100 µM (inactive)
same,GI50,[31],> 100 µM (inactive)
same,GI50,[34],> 100 µM (inactive)
same,GI50,[35],> 100 µM (inactive)
same,GI50,[36],> 100 µM (inactive)
same,GI50,[37],> 100 µM (inactive)
same,GI50,[39],> 10 µM (inactive)
same,GI50,[40],> 100 µM (inactive)
same,GI50,[41],> 100 µM (inactive)
same,GI50,[42],> 100 µM (inactive)
same,GI50,[43],> 100 µM (inactive)
same,GI50,[44],> 100 µM (inactive)
same,GI50,[45],> 100 µM (inactive)
same,GI50,[46],> 100 µM (inactive)
same,GI50,[47],> 100 µM (inactive)
same,GI50,[48],> 100 µM (inactive)
same,GI50,[49],> 100 µM (inactive)
same,GI50,[51],> 100 µM (inactive)
same,GI50,[52],> 10 µM (inactive)
same,GI50,[53],> 100 µM (inactive)
same,GI50,[54],> 100 µM (inactive)
same,GI50,[55],> 100 µM (inactive)
